In patent publication US20170216360A1, “METHODS AND COMPOSITIONS FOR IMPROVING HOMING OF CELLS INCLUDING MESENCHYMAL STEM CELLS” (SANOFI, priority 2014, published 2017):
Structures can show the parent of a compound that is named as a salt.

How the values were obtained:
[1] = system: MSC secretome; assay: Secretomic analysis of small molecule-primed MSCs (Bio-plex immunoassays); format: cell-based, human; settings: for MSC secretome changes, result in words: 3 μM for 24 hours
Description: A single batch of human MSCs (#7F3915) was used for all of these experiments. Cells were seeded at 25,000 cells/well in a 12-well microplate. The following day, cells were treated with the selected compound (3 μM) or DMSO (as control). After 24 hours of treatment, secretomic samples were collected, centrifuged and frozen. Secretomes of MSCs were assayed for cytokines, chemokines and growth factors using Bio-plex human 21-plex and 27-plex immunoassay kits (Bio-Rad), according to the manufacturer's instructions. The 27-plex and 21-plex panels consisted of the following analytes: IL-1alpha, IL-1beta, IL-1Ralpha, IL-2, IL-3, IL-4, IL-5, IL-6, IL-7, IL-8, IL-9, IL-10, IL12p40, IL12p70, IL-13, IL-15, IL-17, IL-18, CTACK, GROalpha, HGF, IFN-alpha2, LIF, MCP-1, MCP-3, MIF, MIG, beta-NGF, SCF, SCGF-beta, SDF-1alpha, TNF-alpha, TNF-beta, TRAIL, Eotaxin, FGF-2, G-CSF, GM-CSF, IFN-gamma, IP-10, MIP-1alpha, PDGF-bb, RANTES and VEGF. A standard range of 0.2 to 3,200 pg/mL was used. Samples and controls were run in triplicate, standards and blanks in duplicate. Error bars represent standard deviation (3 independent experiments).
Analysis of the secretome of MSCs was conducted upon pretreatment of MSCs with compound 1929 for 24 h. In this experiment, the MSCs were from donor 318006 (BM318006 P7). The mean and standard deviation values of secretome analytes were measured in pg/ml.

[2] = system: human mesenchymal stem cells; assay: In vitro functional firm adhesion assay of cells (Table 3, coating not stated); format: cell-based; design: key to Result, in vitro Firm Adhesion: NA = negative activity result; A = positive activity result; settings: for Firm adhesion, Percent increase: relative to untreated and/or negative control MSCs
Description: Cell adhesion experiments were performed using Bioflux1000 (FluxionBio), allowing accurate control over shear flow. A special 48-well plate was used, in which a microfluidic channel (350 μm×70 μm) connects each pair of adjacent wells (termed inlet and outlet wells). The plate was placed under vacuum and the channels were coated from the inlet with recombinant human E-selectin (5 μg/mL) or ICAM-1 (5 μg/mL) and incubated at 37° C. for 1 h. Prior to introducing the cells into the channel, a wash with PBS−/− from the outlet well was performed for 5 min. Compound-pretreated MSCs were introduced into the channel, followed by attachment period of 2 minutes (no flow applied during the attachment period). Attached cells were then subjected to increasing shear flow, ranging from 0.25 dynes/cm^2 for up to 10 dynes/cm^2. Images were acquired using the Montage software and cell adhesion to the coated channels following subjection to shear flow was examined. See also disclosure elsewhere herein.
1. Obtain preferred channel coating (protein/cell monolayer). 2. Prepare cell suspension (same concentrations detailed above for different cell types). 3. Add 50 μl of cell suspension to outlet well. 4. Introduce cells into channel by applying shear force of 2 dynes/cm^2 (cells should be observed within 10-15 sec flowing from outlet to inlet). 5. Once cells are observed in the channel, stop the flow and allow the introduced cells to sit for different time periods ranging from 30 seconds to 5 minutes. 6. Following this settling period, apply shear force starting from 0.5 dynes/cm^2 up to 10 dynes/cm^2 and acquire videos using stream acquisition. 7. Cell quantification is then performed using the Montage software—percentage of cells adhered, rolled or washed away after applying shear flow should be quantified.

[3] = system: human mesenchymal stromal cells (MSCs); assay: Cell viability assay, IncuCyte FLR with Yoyo-1 dye (membrane integrity); format: cell-based; settings: 24 hours pretreatment
Description: Cell viability experiments were performed using the IncuCyte FLR (Essen Bioscience). Cells were stained with a cell impermeant cyanine dimer nucleic acid stain (Yoyo-1, Life Technologies). This fluorescent dye was used to measure cell membrane integrity. Pre-confluent human mesenchymal stromal cells (MSCs) were incubated for 24 hours with both the indicated small molecules […]. To kinetically measure MSC membrane integrity, images were acquired every two hours using an IncuCyte FLR live-cell image imaging system.

## CCc1c2c(nc3ccc(OC(=O)N4CCC(N5CCCCC5)CC4)cc13)-c1cc3c(c(=O)n1C2)COC(=O)[C@]3(O)CC [Compound 1927, reference compound]
[1]
  MSC secretome changes, result in words: no secretome changes
[2]
  Firm adhesion, Percent increase: 22%
[3]
  MSC viability: did not modify MSC viability

## Cn1cc(C2=C(c3c4n(c5ccccc35)CCC(CN)C4)C(=O)NC2=O)c2ccccc21 (stereo not drawn) [Compound 1929, 3-(8-aminomethyl-6,7,8,9-tetrahydro-pyrido[1,2-a]indol-10-yl)-4-(1-methyl-1H-indol-3-yl)-pyrrole-2,5-dione hydrochloride]
[1]
  MSC secretome changes, result in words: did not substantially alter
[1]; 3 μM, 24 h, MSC donor 318006
  Mean of [IFN-g]: 14.9 pg/mL
  Mean of [IL-6]: 333.5 pg/mL
  Mean of [IL-8]: 31.1 pg/mL
  Mean of [IL-12p70]: 13.9 pg/mL
  Mean of [MCP-1]: 22.5 pg/mL
  Mean of [VEGF]: 486.8 pg/mL
[1]; 3 micromolar for 24 hours
  IL-6 level secreted by MSC: downregulation
[1]; MSC secretome
  Fold change of analyte VEGF upon pretreatment (vs. vehicle control): 0.75 +/− 0.26
[2]; pretreated huMSCs
  Result, in vitro Firm Adhesion: A
[2]; hydrochloride
  Firm adhesion, Percent increase: 88%
[3]
  MSC viability: did not modify MSC viability
